Where a name gives a salt, the structure may show the parent alone. Read-outs that look alike come from different tables or passages of the source.
Assays:
[1] = tested on: isolated myocardium of guinea-pigs (right ventricular papillary muscles); test: Effects on the action potential duration in the isolated myocardium of guinea-pigs; design: species or system guinea-pig (male, Hartley strain); settings: Cavia porcellus, 10 min; for activation at 10 µM / activation at 1 µM: read-out: APD90 prolongation; for inhibition at 10 µM / inhibition at 1 µM: read-out: Vmax inhibition
Description: Right ventricular papillary muscles were isolated from male guinea-pigs of Hartley strain weighing 300 to 400 g and fixed at the bottom of an acrylic bath with pins. […] The muscles were stimulated at 1 Hz with rectangular pulses of 1 msec duration and supramaximal voltage. Action potentials were recorded using conventional glass microelectrodes filled with 3M KCl. The duration of the action potential and the maximum velocity of the upstroke of the action potential (Vmax) were determined. Each of the test compounds was included in Tyrode solution at 10^-6 or 10^-5 M and perfused.
Sotalol, a beta-adrenoceptor antagonist was employed as the reference drug because this compound is known to prolong the duration of the myocardial action potential.

in vivo = settings: mouse, iv
Description: Male ddy mice weighing 20 to 30 g were used for the acute toxicity test. LD50 values were calculated by the up-and-down method. […] The dose to be administered was determined on the basis of the volume of the stock solution. The solutions were injected into a tail vein by means of a 1-ml tuberculin syringe. The judgement of survival or death was made 30 min after each injection.

[2] = tested on: anesthetized dogs (QTc-interval of ECG); test: Effects of QTc-interval of ECG in anesthetized dogs; format: in vivo, Mongrel dogs; settings: forearm vein; for change in vivo at 1 mg/kg: 1 mg/kg (1.0 mg/kg)
[3] = 10^-5 M, another 10 min after 10^-6 M, 1 Hz, 37° C.
[4] = 10^-6 M, first 10 min, 1 Hz, 37° C.
[5] = Canis lupus familiaris, iv, 0.1 mg/kg, enflurane anesthesia, read-out: prolongation of QTc-interval
[6] = Canis lupus familiaris, iv, enflurane anesthesia, read-out: prolongation of QTc-interval

| Compound | activation at 10 µM [1, 3] | inhibition at 10 µM [1, 3] | activation at 1 µM [1, 4] | inhibition at 1 µM [1, 4] | LD50 at 0.5 h (in vivo) | activation at 1 µM [1] | activation at 10 µM [1] | inhibition at 1 µM [1] | inhibition at 10 µM [1] | change in vivo at 0.1 mg/kg [2, 5] | change in vivo at 0.3 mg/kg [2, 6] | change in vivo at 0.03 mg/kg ([2]; Canis lupus familiaris, iv, 0.03 mg/kg, enflurane anesthesia, read-out: prolongation of QTc-interval) | change in vivo at 1 mg/kg [2, 6] | QTc-interval after compound ([2]; 0.1 mg/kg, from 435 msec before) |
| --- | --- | --- | --- | --- | --- | --- | --- | --- | --- | --- | --- | --- | --- | --- |
| CS(=O)(=O)Nc1ccc(C(=O)C2CCN(Cc3ccccc3)CC2)cc1 [Compound A, 1-benzyl-4-(4-methylsulfonylaminobenzoyl)piperidine hydrochloride] | 7% | 0% | 0% | 0% | – | – | – | – | – | – | – | – | – | – |
| CS(=O)(=O)Nc1ccc(C(=O)C2CCN(CC(=O)c3cnc4ccccn34)CC2)cc1.Cl.Cl [Compound N, 1-[2-(3-imidazo[1,2-a]pyridyl)-2-oxo-ethyl]-4-(4-methylsulfonylaminobenzoyl)piperidine dihydrochloride] | 8% | 0% | 8% | 0% | 224 mg/kg | – | – | – | – | – | – | – | – | – |
| CS(=O)(=O)Nc1ccc(C(=O)C2CCN(C(=O)c3cccnc3)CC2)cc1 [Compound K, 4-(4-methylsulfonylaminobenzoyl)-1-nicotinoylpiperidine] | 24% | 14% | 9% | 0% | – | – | – | – | – | – | – | – | – | – |
| CS(=O)(=O)Nc1ccc(C(=O)C2CCN(CCc3cccs3)CC2)cc1.CS(=O)(=O)O [Compound F, 4-(4-methylsulfonylaminobenzoyl)-1-[2-(2-thienyl)ethyl]piperidine methylsulfonate] | 11% | 0% | 8% | 0% | 112 mg/kg | – | – | – | – | – | – | – | – | – |
| Cc1cccc(CCN2CCC(C(=O)c3ccc(NS(C)(=O)=O)cc3)CC2)n1 [Compound S, 1-(2-(6-methyl-2-pyridyl)ethyl)-4-(4-methylsulfonylaminobenzoyl)piperidinedihydrochloride] | – | – | – | – | – | 20% | 30% | 0% | 0% | – | – | – | – | – |
| CS(=O)(=O)Nc1ccc(C(=O)C2CCN(Cc3ccc4ccccc4n3)CC2)cc1.Cl.Cl [Compound L, 4-(4-methylsulfonylaminobenzoyl)-1-(2-quinolylmethyl)piperidine dihydrochloride] | 26% | 2% | 18% | 0% | 112 mg/kg | – | – | – | – | 31% | 56% | – | – | – |
| CS(=O)(=O)Nc1ccc(C(=O)C2CCN(CCc3cccnc3)CC2)cc1 [Compound I, 4-(4-methylsulfonylaminobenzoyl)-1-[2-(3-pyridyl)ethyl]piperidine dihydrochloride] | 17% | 0% | 10% | 0% | – | – | – | – | – | – | – | – | – | – |
| CS(=O)(=O)Nc1ccc(C(=O)C2CCN(CCCc3ccncc3)CC2)cc1.Cl.Cl [Compound R, 4-(4-methylsulfonylaminobenzoyl)-1-(3-(4-pyridyl)propyl)piperidine dihydrochloride] | 27% | 0% | 18% | 0% | 138 mg/kg | – | – | – | – | 21% | – | 13% | – | – |
| CS(=O)(=O)Nc1ccc(C(=O)C2CCN(C(=O)c3ccc(NS(C)(=O)=O)cc3)CC2)cc1 [Compound D, 1,4-di(4-methylsulfonylaminobenzoyl)piperidine hydrochloride] | 10% | 0% | 3% | 0% | – | – | – | – | – | – | – | – | – | – |
| CS(=O)(=O)Nc1ccc(C(=O)C2CCN(Cc3cn4ccccc4n3)CC2)cc1 [Compound O, 1-(1-imidazo[1,2-a]pyridylmethyl)-4-(4-methylsulfonylaminobenzoyl)piperidine dihydrochloride] | 12% | 5% | 6% | 0% | 302 mg/kg | – | – | – | – | – | – | – | – | – |
| CS(=O)(=O)Nc1ccc(C(=O)C2CCN(CCc3ccc(Cl)cc3)CC2)cc1 [Compound C, 1-[2-(4-chlorophenyl)ethyl]-4-(4-methylsulfonylaminobenzoyl)piperidine hydrochloride] | 15% | 0% | 7% | 0% | – | – | – | – | – | – | – | – | – | – |
| CS(=O)(=O)Nc1ccc(C(=O)C2CCN(Cc3ccncc3)CC2)cc1.Cl.Cl [Compound G, 4-(4-methylsulfonylaminobenzoyl)-1-(4-pyridyl)methylpiperidine dihydrochloride] | 33% | 0% | 18% | 0% | 108 mg/kg | – | – | – | – | 17% | 27% | – | 35% | – |
| CS(=O)(=O)Nc1ccc(C(=O)C2CCN(Cc3cnc4ccccc4c3)CC2)cc1.Cl.Cl [Compound M, 4-(4-methylsulfonylaminobenzoyl)-1-(3-quinolylmethyl)piperidine dihydrochloride] | 5% | 0% | 3% | 0% | 112 mg/kg | – | – | – | – | 7% | 13% | – | 21% | – |
| CS(=O)(=O)Nc1ccc(C(=O)C2CCN(CCc3ccccc3)CC2)cc1.Cl [Compound B, 4-(4-methylsulfonylaminobenzoyl)-1-(2-phenylethyl)piperidine hydrochloride] | 34% | 19% | 26% | 0% | 100 mg/kg | – | – | – | – | 51% | – | – | – | 665 ms |
| CS(=O)(=O)Nc1ccc(C(=O)C2CCN(Cc3ccc4nccn4c3)CC2)cc1 [Compound Q, 1-(6-imidazo[1,2-a]pyridylmethyl)-4-(4-methylsulfonylaminobenzoyl)piperidine dihydrochloride] | 23% | 0% | 4% | 0% | – | – | – | – | – | – | – | – | – | – |
| CS(=O)(=O)Nc1ccc(C(=O)C2CCN(CCc3ccncc3)CC2)cc1.Cl.Cl [Compound J, 4-(4-methylsulfonylaminobenzoyl)-1-[2-(4-pyridyl)ethyl]piperidine dihydrochloride] | 10% | 0% | 4% | 0% | 195 mg/kg | – | – | – | – | 21% | 42% | – | – | – |
| COc1ccc(CCN2CCC(C(=O)c3ccc(NS(C)(=O)=O)cc3)CC2)cc1OC [Compound E, 1-[2-(3,4-dimethoxyphenyl)ethyl]-4-(4-methylsulfonylaminobenzoyl)piperidine hydrochloride] | 14% | 0% | 12% | 0% | – | – | – | – | – | – | – | – | – | – |
| CS(=O)(=O)Nc1ccc(C(=O)C2CCN(CCc3ccccn3)CC2)cc1 [Compound H, 4-(4-methylsulfonylaminobenzoyl)-1-[2-(2-pyridyl)ethyl]piperidine dihydrochloride] | 5% | 0% | 2% | 0% | – | – | – | – | – | – | – | – | – | – |
| CC(C)NCC(O)c1ccc(NS(C)(=O)=O)cc1 (centres unmarked) [Sotalol, reference compound] | 7% | 0% | 0% | 0% | 113 mg/kg | – | – | – | – | – | – | – | 12% | – |
| CCN1CCC(C(=O)c2ccc(NS(C)(=O)=O)cc2)CC1 [Compound P, 1-ethyl-4-(4-methylsulfonylaminobenzoyl)piperidine hydrochloride] | 23% | 2% | 7% | 0% | – | – | – | – | – | 7% | 14% | – | – | – |
